Results: patent US10196393B2, “JAK inhibitors containing a 4-membered heterocyclic amide” (THERAVANCE BIOPHARMA R&D IP, LLC, priority 2017, dated 2019)
Where two headings read alike, the source gives them in different places.

How the values were obtained:
[1] = system: IL-4 stimulated STAT6 phosphorylation in CD3+ T cells; assay: Cellular JAK potency assay: inhibition of IL-4 stimulated pSTAT6 in CD3+ T cells; format: cell-based; settings: T-cell; CD3+ T cells in human PBMCs; read-out: pIC50, inhibition of IL-4 stimulated pSTAT6 (converted)
Method: Assay 10: Cellular JAK Potency Assay: Inhibition of IL-4 Stimulated pSTAT6 in CD3+ T Cells
The potency of the test compound for inhibition of interleukin-4 (IL-4) stimulated STAT6 phosphorylation was measured in CD3-positive (CD3+) T cells in human peripheral blood mononuclear cells (PBMCs) isolated from human whole blood (Stanford Blood Center) using flow cytometry. Because IL-4 signals through JAK, this assay provides a measure of JAK cellular potency.
CD3+ T cells were identified using a […] (PE) conjugated anti-CD3 antibody (Clone UCHT1, BD Biosciences), while an Alexa Fluor 647 conjugated anti-pSTAT6 antibody (pY641, Clone 18/P, BD Biosciences) was used to detect STAT6 phosphorylation.
Human peripheral blood mononuclear cells (PBMC) were isolated from human whole blood of healthy donors as in Assays 8 and 9. […] After incubation, cells were washed twice in FACS buffer before being analyzed using a LSRII flow cytometer (BD Biosciences).
To determine the inhibitory potency of the test compound in response to IL-4, the median fluorescent intensity (MFI) of pSTAT6 was measured in CD3+ T cells. IC50 values were determined from analysis of the inhibition curves of MFI vs compound concentration. Data are expressed as pIC50 (negative decadic logarithm IC50).

JAK3 = JAK3 (Homo sapiens (Human), UniProt P52333); assay: Biochemical JAK kinase assay (LanthaScreen), JAK3; settings: converted from pIC50 with Cheng-Prusoff equation
Method: (§1) Assay 1: Biochemical JAK Kinase Assays
(§2) A panel of four LanthaScreen JAK biochemical assays (JAK1, 2, 3 and Tyk2) were carried in a common kinase reaction buffer (50 mM HEPES, pH 7.5, 0.01% Brij-35, 10 mM MgCl2, and 1 mM EGTA). Recombinant GST-tagged JAK enzymes and a GFP-tagged STAT1 peptide substrate were obtained from Life Technologies.
(§3) Serially diluted compounds were pre-incubated with each of the four JAK enzymes and the substrate in white 384-well microplates (Corning) at ambient temperature for 1 h. ATP was subsequently added to initiate the kinase reactions in 10 μL total volume, with 1% DMSO. […] The plates were allowed to incubate at ambient temperature for 1 h before being read on the EnVision reader (Perkin Elmer).
(§4) For dose-response analysis, percent inhibition data were plotted vs. compound concentrations, and IC50 values were determined from a 4-parameter robust fit model with the Prism software (GraphPad Software). Results were expressed as pIC50 (negative logarithm of IC50) and subsequently converted to pKi (negative logarithm of dissociation constant, Ki) using the Cheng-Prusoff equation.

[2] = system: IL-5 mediated eosinophil survival in human eosinophils; assay: IL-5 mediated eosinophil survival assay; format: cell-based; settings: 72 h, read-out: pIC50, IL-5 mediated eosinophil survival (converted)
Method: Assay 6: IL-5 Mediated Eosinophil Survival Assay
The potency of the test compound for IL-5 mediated eosinophil survival was measured in human eosinophils isolated from human whole blood (AllCells). Because IL-5 signals through JAK, this assay provides a measure of JAK cellular potency.
Human eosinophils were isolated from fresh human whole blood (AllCells) of healthy donors. Blood was mixed with 4.5% Dextran (Sigma-Aldrich) in a 0.9% sodium chloride solution (Sigma-Aldrich). Red blood cells were left to sediment for 35 minutes. The leukocyte rich upper layer was removed and layered over Ficoll-Paque (GE Healthcare) and centrifuged at 600 g for 30 minutes. The plasma and mononuclear cell layers were removed before the granulocyte layer was lysed with water to remove any contaminating red blood cells. […] Purity was analyzed using a LSRII flow cytometer (BD Biosciences). […]
After cytokine stimulation, cells were centrifuged at 300 g for 5 min and washed twice with cold DPBS (Life Technologies). To access viability and apoptosis, cells were incubated with Propidium Iodide (Thermo Fisher Scientific) and APC Annexin V (BD Biosciences) and analyzed using a LSRII flow cytometer (BD Biosciences). IC50 values were determined from analysis of the viability curves of percent cell viability vs compound concentration. Data are expressed as pIC50 (negative decadic logarithm IC50) values.

[3] = system: IL-2/anti-CD3 stimulated IFNγ in human PBMCs; assay: Cellular JAK potency assay: inhibition of IL-2/anti-CD3 stimulated IFNγ in human PBMCs; format: cell-based; settings: PBMC, 24 h stimulation, read-out: pIC50, inhibition of IL-2/anti-CD3 stimulated IFNγ (converted)
Description: Data are expressed as pIC50 (negative decadic logarithm IC50) values.

JAK1 = JAK1 (Homo sapiens (Human), UniProt P23458); assay: Biochemical JAK kinase assay (LanthaScreen), JAK1; settings: converted from pIC50 with Cheng-Prusoff equation
Method: as §1, §2, §3, §4

Chain of JAK1 (P23458 whole entry): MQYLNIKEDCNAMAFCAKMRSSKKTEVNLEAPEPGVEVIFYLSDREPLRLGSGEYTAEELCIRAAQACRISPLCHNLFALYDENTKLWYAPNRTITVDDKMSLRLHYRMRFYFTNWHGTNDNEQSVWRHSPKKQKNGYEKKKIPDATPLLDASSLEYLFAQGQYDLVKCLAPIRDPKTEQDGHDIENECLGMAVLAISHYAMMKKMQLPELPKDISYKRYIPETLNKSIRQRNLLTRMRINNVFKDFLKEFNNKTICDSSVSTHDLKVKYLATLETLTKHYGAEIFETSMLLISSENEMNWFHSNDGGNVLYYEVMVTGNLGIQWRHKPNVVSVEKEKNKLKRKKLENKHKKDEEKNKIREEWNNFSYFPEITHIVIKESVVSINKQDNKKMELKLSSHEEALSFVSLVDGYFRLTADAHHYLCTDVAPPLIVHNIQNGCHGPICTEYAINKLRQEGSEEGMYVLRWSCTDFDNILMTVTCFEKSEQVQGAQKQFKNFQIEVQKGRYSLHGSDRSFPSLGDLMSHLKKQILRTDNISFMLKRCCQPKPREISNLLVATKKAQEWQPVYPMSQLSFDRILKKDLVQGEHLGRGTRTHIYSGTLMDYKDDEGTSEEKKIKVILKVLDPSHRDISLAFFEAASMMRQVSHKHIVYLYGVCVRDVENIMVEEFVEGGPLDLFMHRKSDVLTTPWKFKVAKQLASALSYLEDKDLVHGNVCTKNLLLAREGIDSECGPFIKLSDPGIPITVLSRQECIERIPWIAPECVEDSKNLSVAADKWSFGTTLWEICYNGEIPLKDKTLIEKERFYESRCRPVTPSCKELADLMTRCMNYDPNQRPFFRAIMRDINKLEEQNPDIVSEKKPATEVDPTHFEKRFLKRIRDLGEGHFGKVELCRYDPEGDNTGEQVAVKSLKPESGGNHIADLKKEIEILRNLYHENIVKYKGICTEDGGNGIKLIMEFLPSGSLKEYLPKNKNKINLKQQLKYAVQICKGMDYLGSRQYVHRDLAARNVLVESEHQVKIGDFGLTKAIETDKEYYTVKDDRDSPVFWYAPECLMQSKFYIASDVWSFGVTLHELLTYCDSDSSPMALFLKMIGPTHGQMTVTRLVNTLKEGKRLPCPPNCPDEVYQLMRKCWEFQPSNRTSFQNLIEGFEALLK
Chain of JAK3 (P52333 whole entry): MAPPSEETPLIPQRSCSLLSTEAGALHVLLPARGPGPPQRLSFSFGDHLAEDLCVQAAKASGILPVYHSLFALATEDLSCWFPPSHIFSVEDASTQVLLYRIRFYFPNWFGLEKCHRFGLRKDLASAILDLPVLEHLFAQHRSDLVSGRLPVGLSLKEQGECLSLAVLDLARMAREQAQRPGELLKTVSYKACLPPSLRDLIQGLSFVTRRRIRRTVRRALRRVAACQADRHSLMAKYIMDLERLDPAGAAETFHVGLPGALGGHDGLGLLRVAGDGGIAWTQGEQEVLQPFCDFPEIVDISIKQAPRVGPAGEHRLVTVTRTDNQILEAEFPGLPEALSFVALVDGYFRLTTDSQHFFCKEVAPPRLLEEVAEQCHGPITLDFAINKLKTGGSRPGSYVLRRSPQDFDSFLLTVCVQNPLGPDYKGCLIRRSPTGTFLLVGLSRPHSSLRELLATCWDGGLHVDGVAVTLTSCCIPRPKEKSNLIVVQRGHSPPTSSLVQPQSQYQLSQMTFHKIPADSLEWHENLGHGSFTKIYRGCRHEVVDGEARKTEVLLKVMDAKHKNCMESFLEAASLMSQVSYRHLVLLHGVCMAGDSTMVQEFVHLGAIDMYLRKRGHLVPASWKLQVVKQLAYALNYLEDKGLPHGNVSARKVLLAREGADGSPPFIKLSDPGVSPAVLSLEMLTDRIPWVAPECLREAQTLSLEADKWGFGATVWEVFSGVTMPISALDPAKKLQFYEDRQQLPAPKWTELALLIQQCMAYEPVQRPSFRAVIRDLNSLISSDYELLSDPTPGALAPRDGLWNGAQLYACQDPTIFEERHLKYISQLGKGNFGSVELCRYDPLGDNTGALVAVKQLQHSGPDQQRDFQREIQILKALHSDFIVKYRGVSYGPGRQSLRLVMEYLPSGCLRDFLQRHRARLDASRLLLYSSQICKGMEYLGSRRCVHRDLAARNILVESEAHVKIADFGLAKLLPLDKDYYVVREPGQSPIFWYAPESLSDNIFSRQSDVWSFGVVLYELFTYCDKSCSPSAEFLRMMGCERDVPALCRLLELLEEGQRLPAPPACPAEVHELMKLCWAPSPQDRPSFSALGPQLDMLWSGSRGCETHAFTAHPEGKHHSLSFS

## CCc1cc(O)c(F)cc1-c1ccc2c(-c3nc4c([nH]3)CN(C(C)C)[C@H](C(=O)N3CC(N(C)C)C3)C4)n[nH]c2c1 [Example 2, (S)-(3-(dimethylamino)azetidin-1-yl)(2-(6-(2-ethyl-5-fluoro-4-hydroxyphenyl)-1H-indazol-3-yl)-5-isopropyl-4,5,6,7-tetrahydro-3H-imidazo[4,5-c]pyridin-6-yl)methanone]
[1]
  IC50: 12.6 nM
JAK3
  Ki: 0.1 nM
[2]; in the presence of 10 pg/ml IL-5, 72 hours
  IC50: 25.1 nM
[2]; in the presence of 1 ng/ml IL-5, 72 hours
  IC50: 631 nM
[3]
  IC50: ~79.4 nM
JAK1
  Ki: 0.04 nM
